Measured values published in patent publication US20240376163A1, “PEPTIDE FOR INHIBITING CALCINEURIN AND USE THEREOF” (Seoul National University R&DB Foundation, priority 2023, published 2024).

Tested on: Jurkat T cells
Assay: mRNA sequencing of activated Jurkat T cells
Assay type: cell-based, human
Conditions: P + I

PEITVTPPTP [CABIN1-L-1-2]
MSMO1 FPKM (Jurkat T cells): 52.664 FPKM | MT2A FPKM (Jurkat T cells): 409.501 FPKM | MXD3 FPKM (Jurkat T cells): 20.08 FPKM | MYB FPKM (Jurkat T cells): 48.107 FPKM | MZB1 FPKM (Jurkat T cells): 23.597 FPKM | N4BP3 FPKM (Jurkat T cells): 2.499 FPKM | NAA16 FPKM (Jurkat T cells): 3.877 FPKM | NCKAP1 FPKM (Jurkat T cells): 10.157 FPKM | NCOA3 FPKM (Jurkat T cells): 11.775 FPKM | NDRG1 FPKM (Jurkat T cells): 128.386 FPKM | NDRG2 FPKM (Jurkat T cells): 2.149 FPKM | NEDD9 FPKM (Jurkat T cells): 4.972 FPKM | NFATC1 FPKM (Jurkat T cells): 3.916 FPKM | NFKB1 FPKM (Jurkat T cells): 44.661 FPKM | NFKB2 FPKM (Jurkat T cells): 71.869 FPKM | NLRC3 FPKM (Jurkat T cells): 5.507 FPKM | NME4 FPKM (Jurkat T cells): 17.501 FPKM | NOTCH2 FPKM (Jurkat T cells): 12.916 FPKM | NOTCH3 FPKM (Jurkat T cells): 0.859 FPKM | NPDC1 FPKM (Jurkat T cells): 5.64 FPKM | NR4A3 FPKM (Jurkat T cells): 1.977 FPKM | NREP FPKM (Jurkat T cells): 6.879 FPKM | NRP1 FPKM (Jurkat T cells): 14.016 FPKM | NSG1 FPKM (Jurkat T cells): 3.929 FPKM | NSMF FPKM (Jurkat T cells): 3.265 FPKM | NT5E FPKM (Jurkat T cells): 12.217 FPKM | NTRK1 FPKM (Jurkat T cells): 1.657 FPKM | ODC1 FPKM (Jurkat T cells): 374.309 FPKM | OPTN FPKM (Jurkat T cells): 14.333 FPKM | OSBPL5 FPKM (Jurkat T cells): 3.123 FPKM | PAM FPKM (Jurkat T cells): 1.934 FPKM | PCNA-AS1 FPKM (Jurkat T cells): 71.806 FPKM | PDCD1 FPKM (Jurkat T cells): 1.974 FPKM | PDGFA FPKM (Jurkat T cells): 8.169 FPKM | PDGFC FPKM (Jurkat T cells): 2.913 FPKM | PDIA6 FPKM (Jurkat T cells): 128.39 FPKM | PDLIM1 FPKM (Jurkat T cells): 5.135 FPKM | PELI2 FPKM (Jurkat T cells): 8.166 FPKM | PEX5L FPKM (Jurkat T cells): 1.299 FPKM | PHACTR2 FPKM (Jurkat T cells): 2.791 FPKM | PHLDB2 FPKM (Jurkat T cells): 3.404 FPKM | PI16 FPKM (Jurkat T cells): 9.625 FPKM | PKIG FPKM (Jurkat T cells): 11.17 FPKM | PKM FPKM (Jurkat T cells): 1838.428 FPKM | PLAC8 FPKM (Jurkat T cells): 1.896 FPKM | PLEC FPKM (Jurkat T cells): 25.453 FPKM | PLS3 FPKM (Jurkat T cells): 0.37 FPKM | POTEE FPKM (Jurkat T cells): 1.196 FPKM | POU2AF1 FPKM (Jurkat T cells): 2.971 FPKM | POU2F2 FPKM (Jurkat T cells): 4.109 FPKM | PPIF FPKM (Jurkat T cells): 106.533 FPKM | PPP1R15A FPKM (Jurkat T cells): 76.265 FPKM | PPP1R16B FPKM (Jurkat T cells): 26.306 FPKM | PRDM8 FPKM (Jurkat T cells): 40.783 FPKM | PRNP FPKM (Jurkat T cells): 41.922 FPKM | PSMB10 FPKM (Jurkat T cells): 125.268 FPKM | PTPN6 FPKM (Jurkat T cells): 20.806 FPKM | PTPN7 FPKM (Jurkat T cells): 78.61 FPKM | PXYLP1 FPKM (Jurkat T cells): 4.92 FPKM | QPRT FPKM (Jurkat T cells): 10.818 FPKM | RAB37 FPKM (Jurkat T cells): 1.369 FPKM | RASGRP1 FPKM (Jurkat T cells): 3.909 FPKM | RASGRP2 FPKM (Jurkat T cells): 2.335 FPKM | RB1 FPKM (Jurkat T cells): 49.538 FPKM | RCBTB2 FPKM (Jurkat T cells): 7.77 FPKM | RCOR2 FPKM (Jurkat T cells): 1.298 FPKM | RGS2 FPKM (Jurkat T cells): 3.39 FPKM | RHOU FPKM (Jurkat T cells): 1.378 FPKM | RNF19A FPKM (Jurkat T cells): 12.101 FPKM | RNF212 FPKM (Jurkat T cells): 1.401 FPKM | RORA FPKM (Jurkat T cells): 1.998 FPKM | RRAS2 FPKM (Jurkat T cells): 20.023 FPKM | RTN4R FPKM (Jurkat T cells): 1.548 FPKM | RUNX1 FPKM (Jurkat T cells): 28.867 FPKM | RUNX3 FPKM (Jurkat T cells): 28.166 FPKM | SASH3 FPKM (Jurkat T cells): 46.514 FPKM | SBK1 FPKM (Jurkat T cells): 5.945 FPKM | SCG2 FPKM (Jurkat T cells): 86.711 FPKM | SCHIP1 FPKM (Jurkat T cells): 1.333 FPKM | SEPT3 FPKM (Jurkat T cells): 0.994 FPKM | SEPT6 FPKM (Jurkat T cells): 44.841 FPKM | SEPT9 FPKM (Jurkat T cells): 39.741 FPKM | SERINC5 FPKM (Jurkat T cells): 3.312 FPKM | SERPINB8 FPKM (Jurkat T cells): 23.508 FPKM | SERPINE2 FPKM (Jurkat T cells): 3.911 FPKM | SERTAD1 FPKM (Jurkat T cells): 14.426 FPKM | SGK1 FPKM (Jurkat T cells): 105.258 FPKM | SH2D1A FPKM (Jurkat T cells): 16.781 FPKM | SH2D2A FPKM (Jurkat T cells): 22.586 FPKM | SH3TC1 FPKM (Jurkat T cells): 1.895 FPKM | SIVA1 FPKM (Jurkat T cells): 51.964 FPKM | SLAMF1 FPKM (Jurkat T cells): 0.275 FPKM | SLAMF7 FPKM (Jurkat T cells): 3.544 FPKM | SLAMF8 FPKM (Jurkat T cells): 5.828 FPKM | SLC22A1 FPKM (Jurkat T cells): 42.379 FPKM | SLC27A2 FPKM (Jurkat T cells): 41.908 FPKM | SLC29A4 FPKM (Jurkat T cells): 1.658 FPKM | SLC35E4 FPKM (Jurkat T cells): 1.517 FPKM | SLC35G2 FPKM (Jurkat T cells): 11.385 FPKM | SMAD1 FPKM (Jurkat T cells): 3.995 FPKM | SMOX FPKM (Jurkat T cells): 18.934 FPKM | SMPD1 FPKM (Jurkat T cells): 18.206 FPKM | SORBS1 FPKM (Jurkat T cells): 0.511 FPKM | SOX4 FPKM (Jurkat T cells): 55.775 FPKM | SPINT1 FPKM (Jurkat T cells): 1.712 FPKM | SPRY1 FPKM (Jurkat T cells): 4.901 FPKM | SPRY4 FPKM (Jurkat T cells): 7.991 FPKM | SPSB1 FPKM (Jurkat T cells): 9.593 FPKM | SPTBN2 FPKM (Jurkat T cells): 2.053 FPKM | SRGN FPKM (Jurkat T cells): 9.743 FPKM | SSBP2 FPKM (Jurkat T cells): 5.549 FPKM | ST3GAL6 FPKM (Jurkat T cells): 5.239 FPKM | STAT2 FPKM (Jurkat T cells): 36.117 FPKM | STAT3 FPKM (Jurkat T cells): 74.439 FPKM | STAU2 FPKM (Jurkat T cells): 5.719 FPKM | STMN3 FPKM (Jurkat T cells): 7.407 FPKM | STX1A FPKM (Jurkat T cells): 13.882 FPKM | SYK FPKM (Jurkat T cells): 6.222 FPKM | TAGAP FPKM (Jurkat T cells): 8.731 FPKM | TAL1 FPKM (Jurkat T cells): 18.466 FPKM | TAP2 FPKM (Jurkat T cells): 6.702 FPKM | TAPBPL FPKM (Jurkat T cells): 20.693 FPKM | TBC1D4 FPKM (Jurkat T cells): 13.191 FPKM | TBC1D5 FPKM (Jurkat T cells): 3.021 FPKM | TBKBP1 FPKM (Jurkat T cells): 22.205 FPKM | TCF3 FPKM (Jurkat T cells): 36.607 FPKM | TCF7 FPKM (Jurkat T cells): 11.184 FPKM | TCF12 FPKM (Jurkat T cells): 29.903 FPKM | TDRD9 FPKM (Jurkat T cells): 1.888 FPKM | TGFBR2 FPKM (Jurkat T cells): 36.254 FPKM | THEM6 FPKM (Jurkat T cells): 2.542 FPKM | THEMIS FPKM (Jurkat T cells): 35.627 FPKM | TIAF1 FPKM (Jurkat T cells): 9.375 FPKM | TIAM1 FPKM (Jurkat T cells): 9.551 FPKM | TIAM2 FPKM (Jurkat T cells): 0.301 FPKM | TLE1 FPKM (Jurkat T cells): 1.647 FPKM | TMCC3 FPKM (Jurkat T cells): 7.278 FPKM | TNFAIP3 FPKM (Jurkat T cells): 35.424 FPKM | TNFRSF10B FPKM (Jurkat T cells): 36.431 FPKM | TNFSF10 FPKM (Jurkat T cells): 49.452 FPKM | TNFSF14 FPKM (Jurkat T cells): 4.255 FPKM | TPM4 FPKM (Jurkat T cells): 178.336 FPKM | TPST2 FPKM (Jurkat T cells): 29.147 FPKM | TRAF3IP3 FPKM (Jurkat T cells): 11.237 FPKM | TRIB1 FPKM (Jurkat T cells): 4.108 FPKM | TRIM21 FPKM (Jurkat T cells): 42.08 FPKM | TTLL1 FPKM (Jurkat T cells): 3.295 FPKM | UBE2L6 FPKM (Jurkat T cells): 167.347 FPKM | UHRF1 FPKM (Jurkat T cells): 6.903 FPKM | VAMP1 FPKM (Jurkat T cells): 14.752 FPKM | VAT1 FPKM (Jurkat T cells): 40.336 FPKM | VAV1 FPKM (Jurkat T cells): 22.182 FPKM | WARS FPKM (Jurkat T cells): 112.259 FPKM | WDR76 FPKM (Jurkat T cells): 8.215 FPKM | XCL1 FPKM (Jurkat T cells): 1.144 FPKM | XCL2 FPKM (Jurkat T cells): 2.074 FPKM | XIRP1 FPKM (Jurkat T cells): 13.281 FPKM | XRCC6BP1 FPKM (Jurkat T cells): 9.204 FPKM | YPEL1 FPKM (Jurkat T cells): 4.38 FPKM | ZFP36L1 FPKM (Jurkat T cells): 136.279 FPKM | ZFP36L2 FPKM (Jurkat T cells): 9.774 FPKM | ZNF280D FPKM (Jurkat T cells): 2.132 FPKM | ZNF367 FPKM (Jurkat T cells): 2.274 FPKM | ZNF480 FPKM (Jurkat T cells): 6.823 FPKM | ZNF521 FPKM (Jurkat T cells): 1.965 FPKM | ZNF652 FPKM (Jurkat T cells): 2.469 FPKM | ZNF704 FPKM (Jurkat T cells): 0.183 FPKM | ZNF827 FPKM (Jurkat T cells): 1.372 FPKM | ZNFX1 FPKM (Jurkat T cells): 19.096 FPKM | ZP4 FPKM (Jurkat T cells): 5.182 FPKM | ZYX FPKM (Jurkat T cells): 85.489 FPKM | ADORA2A FPKM: 1.475 FPKM | AGK FPKM: 14.306 FPKM | ARHGEF3 FPKM: 8.674 FPKM | ASAP1 FPKM: 9.052 FPKM | ATG14 FPKM: 11.252 FPKM | ATP6V1B2 FPKM: 60.661 FPKM | BCL2L1 FPKM: 41.852 FPKM | C3 FPKM: 1.329 FPKM | C10orf54 FPKM: 0.487 FPKM | CABP1 FPKM: 1.689 FPKM | CCDC64 FPKM: 11.039 FPKM | CCL1 FPKM: 0.415 FPKM | CCL3 FPKM: 0.502 FPKM | CCL3L1 FPKM: 0.079 FPKM | CCL3L3 FPKM: 0.079 FPKM | CCL4 FPKM: 4.062 FPKM | CCL4L1 FPKM: 0.328 FPKM | CCL4L2 FPKM: 0.328 FPKM | CCL20 FPKM: 1.279 FPKM | CCND2 FPKM: 0.99 FPKM | CD27-AS1 FPKM: 4.613 FPKM | CD27 FPKM: 3.4 FPKM | CD55 FPKM: 12.082 FPKM | CD70 FPKM: 7.606 FPKM | CD97 FPKM: 21.496 FPKM | CD200 FPKM: 0.094 FPKM | COL27A1 FPKM: 5.729 FPKM | CREB5 FPKM: 1.966 FPKM
